Data: patent US11319315B2, “Cyclohexyl acid triazole azoles as LPA antagonists” (BRISTOL-MYERS SQUIBB COMPANY, priority 2017, dated 2022)

Target: T1, human LPA1 (Homo sapiens, UniProt Q92633)
T1 construct: expressed in transfected cells; host or cells: Chinese hamster ovary (CHO) cells
Assay: LPA1 functional antagonist assay (LPA-induced calcium flux in CHO cells overexpressing human LPA1)
Type: cell-based
Conditions: inhibition of calcium flux induced by 10 nM LPA, CHO cells overexpressing human LPA1; read-out: hLPA1 IC50
Method in brief: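 Calcium flux was triggered by 10 nM LPA after 20 min room-temperature compound pre-incubation (final 0.08 nM to 5 μM, 0.5% DMSO) in human LPA1-overexpressing CHO cells carrying calcium dye. Buffer: HBSS with Ca/Mg, 20 mM HEPES, 0.1% fatty-acid-free BSA; IC50s from 4-parameter logistic fits.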

T1 sequence (Q92633 whole entry): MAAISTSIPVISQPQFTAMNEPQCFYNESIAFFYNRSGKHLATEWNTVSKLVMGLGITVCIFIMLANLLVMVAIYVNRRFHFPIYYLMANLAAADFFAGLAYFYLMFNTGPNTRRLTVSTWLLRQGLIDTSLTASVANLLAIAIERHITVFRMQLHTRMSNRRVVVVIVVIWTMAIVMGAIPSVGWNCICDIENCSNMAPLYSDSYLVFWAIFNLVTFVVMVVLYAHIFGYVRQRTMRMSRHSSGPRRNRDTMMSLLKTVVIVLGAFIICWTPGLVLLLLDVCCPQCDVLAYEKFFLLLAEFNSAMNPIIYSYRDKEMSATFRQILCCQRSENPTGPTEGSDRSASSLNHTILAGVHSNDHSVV

SMILES | IC50 [nM]
CCCO[C@H](C)c1nc(NCc2c(-c3ccc(O[C@H]4CCC[C@H](C(=O)O)C4)c(C)n3)nnn2C)no1 [Example 219, (1S,3S)-3-((2-methyl-6-(1-methyl-5-(((5-((R)-1-propoxyethyl)-1,2,4-oxadiazol-3-yl)amino)methyl)-1H-1,2,3-triazol-4-yl)pyridin-3-yl)oxy)cyclohexane-1-carboxylic acid] | 63
CCCO[C@@H](C)c1nc(NCc2c(-c3ccc(O[C@H]4CCC[C@H](C(=O)O)C4)c(C)n3)nnn2C)no1 [Example 220] | 160
CCc1nc(N(C)Cc2c(-c3ccc(O[C@H]4CCC[C@H](C(=O)O)C4)c(C)n3)nnn2C)no1 [Example 224, (1S,3S)-3-((6-(5-(((5-ethyl-1,2,4-oxadiazol-3-yl)(methyl)amino)methyl)-1-methyl-1H-1,2,3-triazol-4-yl)-2-methylpyridin-3-yl)oxy)cyclo-hexane-1-carboxylic acid] | 2720
CCOC1(c2nc(NCc3c(-c4ccc(O[C@H]5CCC[C@H](C(=O)O)C5)c(C)n4)nnn3C)no2)CC1 [Example 225, (1S,3S)-3-((6-(5-(((5-(1-ethoxy-cyclopropyl)-1,2,4-oxadiazol-3-yl)amino)methyl)-1-methyl-1H-1,2,3-triazol-4-yl)-2-methylpyridin-3-yl)oxy)cyclohexane-1-carboxylic acid] | 1320
Cc1nc(-c2nnn(C)c2Cc2noc(CCC(C)(F)F)n2)ccc1O[C@H]1CCC[C@H](C(=O)O)C1 [Example 227, (1 S,3 S)-3-((6-(5-((5-(3,3-difluorobutyl)-1,2,4-oxadiazol-3-yl)methyl)-1-methyl-1H-1,2,3-triazol-4-yl)-2-methylpyridin-3-yl)oxy)cyclohexane-1-carboxylic acid] | 2
Cc1nc(-c2nnn(C)c2Cc2noc(CC3CC3)n2)ccc1O[C@H]1CCC[C@H](C(=O)O)C1 [Example 228, (1S,3S)-3-((6-(5-((5-(cyclopropylmethyl)-1,2,4-oxadiazol-3-yl)methyl)-1-methyl-1H-1,2,3-triazol-4-yl)-2-methylpyridin-3-yl)oxy)cyclohexane-1-carboxylic acid] | 19
Cc1nc(-c2nnn(C)c2Cc2noc(CCC(C)C)n2)ccc1O[C@H]1CCC[C@H](C(=O)O)C1 [Example 229, (1S,3S)-3-((6-(5-((5-isopentyl-1,2,4-oxadiazol-3-yl)methyl)-1-methyl-1H-1,2,3-triazol-4-yl)-2-methylpyridin-3-yl)oxy)cyclohexane-1-carboxylic acid] | 11
Cc1nc(-c2nnn(C)c2Cc2noc(C(C)C)n2)ccc1O[C@H]1CCC[C@H](C(=O)O)C1 [Example 230, (1S,3S)-3-((6-(5-((5-isopropyl-1,2,4-oxadiazol-3-yl)methyl)-1-methyl-1H-1,2,3-triazol-4-yl)-2-methylpyridin-3-yl)oxy)cyclohexane-1-carboxylic acid] | 95
Cc1nc(-c2nnn(C)c2Cc2noc(CCC3CC3)n2)ccc1O[C@H]1CCC[C@H](C(=O)O)C1 [Example 231, (1S,3S)-3-((6-(5-((5-(2-cyclopropylethyl)-1,2,4-oxadiazol-3-yl)methyl)-1-methyl-1H-1,2,3-triazol-4-yl)-2-methylpyridin-3-yl)oxy)cyclohexane-1-carboxylic acid] | 15
Cc1nc(-c2nnn(C)c2Cc2noc(CCC3CCC3)n2)ccc1O[C@H]1CCC[C@H](C(=O)O)C1 [Example 232, (1S,3S)-3-((6-(5-((5-(2-cyclobutylethyl)-1,2,4-oxadiazol-3-yl)methyl)-1-methyl-1H-1,2,3-triazol-4-yl)-2-methylpyridin-3-yl)oxy)cyclohexane-1-carboxylic acid] | 8
CCCCc1nc(Cc2c(-c3ccc(O[C@H]4CCC[C@H](C(=O)O)C4)c(C)n3)nnn2C)no1 [Example 233, (1S,3S)-3-((6-(5-((5-butyl-1,2,4-oxadiazol-3-yl)methyl)-1-methyl-1H-1,2,3-triazol-4-yl)-2-methylpyridin-3-yl)oxy)cyclohexane-1-carboxylic acid] | 8
Cc1nc(-c2nnn(C)c2Cc2noc(CC(C)C)n2)ccc1O[C@H]1CCC[C@H](C(=O)O)C1 [Example 234, (1S,3S)-3-((6-(5-((5-isobutyl-1,2,4-oxadiazol-3-yl)methyl)-1-methyl-1H-1,2,3-triazol-4-yl)-2-methylpyridin-3-yl)oxy)cyclohexane-1-carboxylic acid] | 52
CCCc1nc(Cc2c(-c3ccc(O[C@H]4CCC[C@H](C(=O)O)C4)c(C)n3)nnn2C)no1 [Example 235, (1S,3S)-3-((2-methyl-6-(1-methyl-5-((5-propyl-1,2,4-oxadiazol-3-yl)methyl)-1H-1,2,3-triazol-4-yl)pyridin-3-yl)oxy)cyclohexane-1-carboxylic acid] | 59
Cc1nc(-c2nnn(C)c2Cc2noc(CC3CCC3)n2)ccc1O[C@H]1CCC[C@H](C(=O)O)C1 [Example 236, (1S,3S)-3-((6-(5-((5-(cyclobutyl-methyl)-1,2,4-oxadiazol-3-yl)methyl)-1-methyl-1H-1,2,3-triazol-4-yl)-2-methylpyridin-3-yl)oxy)cyclohexane-1-carboxylic acid] | 28
Cc1nc(-c2nnn(C)c2Cc2noc(Cc3ccccc3)n2)ccc1O[C@H]1CCC[C@H](C(=O)O)C1 [Example 237, (1S,3S)-3-((6-(5-((5-benzyl-1,2,4-oxadiazol-3-yl)methyl)-1-methyl-1H-1,2,3-triazol-4-yl)-2-methylpyridin-3-yl)oxy)cyclohexane-1-carboxylic acid] | 8
Cc1nc(-c2nnn(C)c2Cc2noc(-c3ccccc3)n2)ccc1O[C@H]1CCC[C@H](C(=O)O)C1 [Example 238, (1S,3S)-3-((2-methyl-6-(1-methyl-5-((5-phenyl-1,2,4-oxadiazol-3-yl)methyl)-1H-1,2,3-triazol-4-yl)pyridin-3-yl)oxy)cyclohexane-1-carboxylic acid] | 161
Cc1nc(-c2nnn(C)c2Cc2noc(CCC(F)(F)F)n2)ccc1O[C@H]1CCC[C@H](C(=O)O)C1 [Example 240] | 61
Cc1nc(-c2nnn(C)c2Cc2nc(CCC(C)C)no2)ccc1O[C@H]1CCC[C@H](C(=O)O)C1 [Example 241, (1 S,3 S)-3-((6-(5-((3-isopentyl-1,2,4-oxadiazol-5-yl)methyl)-1-methyl-1H-1,2,3-triazol-4-yl)-2-methylpyridin-3-yl)oxy)cyclohexane-1-carboxylic acid] | 33
COc1cccc(Cc2noc(Cc3c(-c4ccc(O[C@H]5CCC[C@H](C(=O)O)C5)c(C)n4)nnn3C)n2)c1 [Example 242, (1S,3S)-3-((6-(5-((3-(3-methoxy-benzyl)-1,2,4-oxadiazol-5-yl)methyl)-1-methyl-1H-1,2,3-triazol-4-yl)-2-methylpyridin-3-yl)oxy)cyclohexane-1-carboxylic acid] | 2020
Cc1nc(-c2nnn(C)c2Cc2nc(CC(C)C)no2)ccc1O[C@H]1CCC[C@H](C(=O)O)C1 [Example 243, (1S,3S)-3-((6-(5-((3-isobutyl-1,2,4-oxadiazol-5-yl)methyl)-1-methyl-1H-1,2,3-triazol-4-yl)-2-methylpyridin-3-yl)oxy)cyclohexane-1-carboxylic acid] | 58
Cc1nc(-c2nnn(C)c2Cc2nc(Cc3ccccc3)no2)ccc1O[C@H]1CCC[C@H](C(=O)O)C1 [Example 244, (1S,3S)-3-((6-(5-((3-benzyl-1,2,4-oxadiazol-5-yl)methyl)-1-methyl-1H-1,2,3-triazol-4-yl)-2-methylpyridin-3-yl)oxy)cyclohexane-1-carboxylic acid] | 40
Cc1nc(-c2nnn(C)c2Cc2nc(-c3ccccc3)no2)ccc1O[C@H]1CCC[C@H](C(=O)O)C1 [Example 245, (1S,3S)-3-((2-methyl-6-(1-methyl-5-((3-phenyl-1,2,4-oxadiazol-5-yl)methyl)-1H-1,2,3-triazol-4-yl)pyridin-3-yl)oxy)cyclohexane-1-carboxylic acid] | 79
Cc1nc(-c2nnn(C)c2Cc2nc(CC3CC3)no2)ccc1O[C@H]1CCC[C@H](C(=O)O)C1 [Example 246, (1S,3S)-3-((6-(5-((3-(cyclopropyl-methyl)-1,2,4-oxadiazol-5-yl)methyl)-1-methyl-1H-1,2,3-triazol-4-yl)-2-methylpyridin-3-yl)oxy)cyclohexane-1-carboxylic acid] | 40
CCCc1noc(Cc2c(-c3ccc(O[C@H]4CCC[C@H](C(=O)O)C4)c(C)n3)nnn2C)n1 [Example 247, (1S,3S)-3-((2-methyl-6-(1-methyl-5-((3-propyl-1,2,4-oxadiazol-5-yl)methyl)-1H-1,2,3-triazol-4-yl)pyridin-3-yl)oxy)cyclohexane-1-carboxylic acid] | 82
Cc1nc(-c2nnn(C)c2Cc2nc(COC(C)C)no2)ccc1O[C@H]1CCC[C@H](C(=O)O)C1 [Example 248, (1S,3S)-3-((6-(5-((3-(isopropoxy-methyl)-1,2,4-oxadiazol-5-yl)methyl)-1-methyl-1H-1,2,3-triazol-4-yl)-2-methylpyridin-3-yl)oxy)cyclohexane-1-carboxylic acid] | 61
CCOCc1noc(Cc2c(-c3ccc(O[C@H]4CCC[C@H](C(=O)O)C4)c(C)n3)nnn2C)n1 [Example 249, (1S,3S)-3-((6-(5-((3-(ethoxymethyl)-1,2,4-oxadiazol-5-yl)methyl)-1-methyl-1H-1,2,3-triazol-4-yl)-2-methylpyridin-3-yl)oxy)cyclohexane-1-carboxylic acid] | 76
Cn1nnc(-c2ccc(O[C@H]3CCC[C@H](C(=O)O)C3)cn2)c1Cn1nnc(CC2CC2)n1 [Example 250, (1 S,3 S)-3-((6-(5-((5-(cyclopropylmethyl)-2H-tetrazol-2-yl)methyl)-1-methyl-1H-1,2,3-triazol-4-yl)pyridin-3-yl)oxy)cyclohexane-1-carboxylic acid] | 44
